# Measured values: paper PMC6368365, “Didehydro-Cortistatin A Inhibits HIV-1 by Specifically Binding to the Unstructured Basic Region of Tat” (mBio, 2019)
# Columns and labels:
# [1] = test system: Tat transactivation activity; assay: Transactivation assay (luciferase) in HeLa-CD4-LTR-Luc cells transfected with FLAG-Tat; assay type: cell-based, HIV-1; conditions: 25 nM, 48 h
# Procedure: Supplementary file : FIG S9 Tat-TAR interaction blocked by dCA in HeLa-CD4-LTR-Luc cells. (A) Transactivation assays. HeLa-CD4-LTR-Luc cells, transfected with Tat or Tat Mut, were incubated with the indicated compounds (dCA and raltegravir [“Ralt.”], 25 nM) or DMSO. Forty-eight hours later, cells were lysed and cross-linked, and luciferase activity relative to the Bradford assay or ChIP TAR RNA (Fig. 6D) was determined. Data are the mean ± SD from n = 3 independent experiments. (B) Western blot of the amount of FLAG-Tat bound to FLAG-tagged beads after elution of the samples for ChIP TAR RNA, as control input. The input of FLAG-Tat and GAPDH as a loading control. Data are representative of n = 3 independent experiments. Statistical significance was determined using one-way ANOVA with post hoc Tukey’s test, comparing DMSO to the other conditions. ***, P < 0.0001. Download FIG S9, PDF file, 0.2 MB.
# Chromatin was immunoprecipitated with an anti-FLAG antibody, and qRT-PCR was performed to detect the presence of chromatin-coding TAR (Fig. 6D).
# Chromatin immunoprecipitation assay (CHIP). HeLa-CD4-LTR-Luc cells (4×10^6) were transfected with different constructs (PGK-FLAG Tat and PGK-FLAG Tat Mut). […] The relative proportions of co-immunoprecipitated DNA were determined on the basis of the threshold cycle for qRT-PCR. […]
# [2] = test system: export function of HIV Rev; assay: Viral mRNA export in NL4-3-infected CEM-SS cells (qRT-PCR); assay type: cell-based, HIV-1; conditions: dCA 30 nM, 24 hours
# From the text: If dCA were to bind the basic domain of Tat in its disordered form, then one would predict it might also bind to other basic peptide sequences and block their functions. The two well-known proteins that share a similar basic domain with Tat are HIV-1 Rev protein and the cellular protein Hexim-1 (Fig. 3A). As such, we investigated whether dCA could inhibit these similar basic domain functions. The basic domain of Rev is responsible for its nuclear localization ([31]); therefore, we assessed whether dCA could impact the subcellular localization of Rev (Fig. 3B) as previously shown for Tat ([10]). We transfected HeLa-CD4-LTR-Luc cells with a plasmid expressing FLAG-tagged Rev and assessed Rev localization in the presence of 100 nM dCA. […] Twenty-four hours later, cells were collected, and total, nuclear, and cytoplasmic mRNAs were extracted, reverse transcribed, and quantified by quantitative real-time PCR (qRT-PCR).
# Cells were infected with the NL4-3 strain for 24 hours. […] Total, nuclear, and cytoplasmic mRNAs were extracted, and viral messages were measured by qRT-PCR. […] Statistical significance was determined using one-way ANOVA with post hoc Tukey’s test, comparing the DMSO condition to the other conditions. ***, P < 0.0001; **, P < 0.001; *, P < 0.01. […] Seventy hours later, viability was measured. […]
smiles,measurement,setting,value
"CN(C)C1CC23CCC4(O2)C(=CCC2(C)C(c5ccc6ccncc6c5)=CCC24)C=C3C(O)C1O (centres unmarked) [dCA, didehydro-cortistatin A]","Tat transactivation activity (luciferase), transfected FLAG-Tat",[1],inhibited Tat transactivation activity
same,export function of HIV Rev in CEM-SS cells,[2],does not perturb the export function of HIV Rev in CEM-SS cells
